Laboratory results as given in ChEMBL document CHEMBL2157896, “Engineering pH-gated transitions for selective and efficient double-strand DNA photocleavage in hypoxic tumors” (J Med Chem, 2011).
Calls of active or inactive are those of the source. The calls are words filed in the database; no cut-off is given here.

Columns and labels:
Nucleic Acid [1] = assay: Induction of DNA damage in human […] cells at 30 uM incubated for 3 hrs by single cell gel electrophoresis; type: cell-based
Nucleic Acid [2] = assay: Induction of photochemical DNA cleavage in Escherichia coli pBR322 assessed as form I level at 15 uM in pH 6.0 phosphate buffer measured after 1 min of UV irradiation; type: nucleic-acid assay
Nucleic Acid [3] = assay: Induction of photochemical DNA cleavage in Escherichia coli pBR322 assessed as form I level at 15 uM in pH 6.0 phosphate buffer measured after 2 mins of UV irradiation; type: nucleic-acid assay
Nucleic Acid [4] = assay: Induction of photochemical DNA cleavage in Escherichia coli pBR322 assessed as form 3 level at 15 uM in pH 6.0 phosphate buffer measured after 6 mins of UV irradiation; type: nucleic-acid assay
A-375 [5] = assay: Drug uptake in human A375 cells at 30 uM incubated for 30 mins by fluorescence microscopy; type: ADME, cell-based; conditions: a-375, 0.5 h
Nucleic Acid [6] = assay: Induction of photochemical DNA cleavage in Escherichia coli pBR322 assessed as disappearance of supercoiled DNA at 15 uM in pH 7.0 phosphate buffer after 10 mins of UV irradiation; type: nucleic-acid assay
A-375 [7] = assay: Drug uptake in human A375 cells at 30 uM incubated for 30 mins by differential interference contrast microscopy; type: ADME, cell-based; conditions: a-375, 0.5 h
Nucleic Acid [8] = assay: Induction of photochemical DNA cleavage in Escherichia coli pBR322 assessed as form 2 level at 15 uM in pH 7.0 phosphate buffer measured after 6 mins of UV irradiation; type: nucleic-acid assay

NCCCC[C@H](N)C(=O)NCCCC[C@H](N)C(=O)Nc1ccc(C#Cc2c(F)c(F)nc(F)c2F)cc1.O=C(O)C(F)(F)F
Activity (Nucleic Acid [1]): Active
Activity (Nucleic Acid [2]): 30.2%
Activity (Nucleic Acid [3]): 17.3%
Activity (Nucleic Acid [4]): 51.9%
Drug uptake (A-375 [5]): Active
Activity (Nucleic Acid [6]): Active
Drug uptake (A-375 [7]): Active
Activity (Nucleic Acid [8]): 47.2%
